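Where inhibition never reached the appropriate level, the endpoint shown equals the highest concentration tested. Otherwise, values were interpolated linearly from a five-concentration, 48-hour dose response in 96-well plates. Abbreviation: GI50, concentration required for 50% inhibition of growth.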 Active and inactive are the calls of the source. Cut-off read from the data, not from the text of the source: active = GI50 up to about 1.1 µM and inactive = higher.
How the values were obtained:
Assay in all cases: DTP human tumour cell line panel, 48 h
MDA-N = tested on: MDA-N
Hs-578T = tested on: Hs-578T
PC-3 = tested on: PC-3
SNB-78 = tested on: SNB-78
DMS-114 = tested on: DMS-114
DLD-1 = tested on: DLD-1
DMS-273 = tested on: DMS-273
HOP-18 = tested on: HOP-18

Compound | GI50 (MDA-N) | GI50 (Hs-578T) | GI50 (PC-3) | GI50 (SNB-78) | GI50 (DMS-114) | GI50 (DLD-1) | GI50 (DMS-273) | GI50 (HOP-18)
CCOP(=O)(OCC)C(Nc1ccc(Br)cc1)c1cccc([N+](=O)[O-])c1 (centres undefined) | 19.2 µM (inactive) | 21.3 µM (inactive) | – | – | – | – | – | –
COC1C(O)C(O[C@H]2CC[C@@]3(C)C(CC[C@@H]4[C@@H]3CC[C@]3(C)[C@@H](C(C)OC5OC(CO)C(O)C(O)C5O)CC[C@]43O)C2)OC(C)C1OC1OC(CO)C(O)C(O)C1O (some centres undefined) | > 100 µM (inactive) | > 100 µM (inactive) | > 100 µM (inactive) | – | – | – | – | –
Cc1cc(C)nc(SC(C)C(=O)N/N=C/c2ccc(OCc3ccccc3)cc2)n1 (centres undefined) | 22.8 µM (inactive) | 52 µM (inactive) | 22.4 µM (inactive) | – | – | – | – | –
Cc1ccc(C(=O)C2=CN=C3C(=O)N(c4ccccc4)N(C)C3(C)C2=N)cc1 (centres undefined) | > 100 µM (inactive) | – | > 100 µM (inactive) | – | – | – | – | –
N#Cc1c(Cl)nc2ccccc2c1N=[N+]=[N-] | 13.3 µM (inactive) | 5.81 µM (inactive) | 2.65 µM (inactive) | – | – | – | – | –
O=c1[nH]c(-c2ccccc2)nc2c1sc1nc3ccccc3n12 | > 100 µM (inactive) | 26.7 µM (inactive) | > 100 µM (inactive) | – | – | – | – | –
CC(C)(C)OC(=O)NC1CCCC1C(=O)C1=CCCC1 (centres undefined) | 53 µM (inactive) | 44 µM (inactive) | > 100 µM (inactive) | – | – | – | – | –
NS(=O)(=O)c1ccc(NC(=O)Nc2cccc3ccccc23)cc1 | 54.8 µM (inactive) | 42.2 µM (inactive) | 20.2 µM (inactive) | – | – | – | – | –
CCOP(=O)(OCC)/C(C#N)=C/c1ccc(-c2cc(C(F)(F)F)cc(C(F)(F)F)c2)o1 | 13.3 µM (inactive) | 25.1 µM (inactive) | 11.7 µM (inactive) | – | – | – | – | –
Cn1c(N)c(Cc2ccc(Cl)cc2)c(=O)[nH]c1=O | > 100 µM (inactive) | > 100 µM (inactive) | – | – | – | – | – | –
N[C@H]1CCCC[C@@H]1N1C(=O)c2ccccc2C1(O)c1ccc(Cl)cc1 (some centres undefined) | 11.8 µM (inactive) | 17 µM (inactive) | 11.4 µM (inactive) | – | – | – | – | –
Cc1cc([N+](=O)[O-])c(C)c2c1[nH]c1ccc(Cl)cc12 | – | – | – | > 100 µM (inactive) | > 100 µM (inactive) | > 10 µM (inactive) | 63.1 µM (inactive) | > 100 µM (inactive)
CCCNC1=C2CC(C)CC(OC)[C@@H](O)[C@H](C)/C=C(\C)C(OC(N)=O)C(OC)/C=C\C=C(/C)C(=O)NC(=CC1=O)C2=O (some centres undefined) | 0.118 µM (active) | 3.03 µM (inactive) | 0.411 µM (active) | – | – | – | – | –
Cc1c(C)n(-c2ccccc2)c2nc([S+](C)[O-])nc([S+](C)[O-])c12 (centres undefined) | 3.68 µM (inactive) | 25.5 µM (inactive) | 7 µM (inactive) | – | – | – | – | –
O=[N+]([O-])c1ccc2nc(=S)[nH]n2c1 | – | > 100 µM (inactive) | – | – | – | – | – | –
O=C(O)c1nnsc1-c1csnn1 | > 100 µM (inactive) | > 100 µM (inactive) | > 100 µM (inactive) | – | – | – | – | –

Compound | GI50 (MDA-N) | GI50 (Hs-578T) | GI50 (PC-3) | GI50 (SNB-78) | GI50 (DMS-114) | GI50 (DLD-1) | GI50 (DMS-273) | GI50 (HOP-18)
C=CCC1(OCc2ccccc2)C(=O)C(=O)OC1C1COC(C)(C)O1 (centres undefined) | > 100 µM (inactive) | > 100 µM (inactive) | > 100 µM (inactive) | – | – | – | – | –
O=C(NCc1cccnc1)NCc1cccnc1 | > 100 µM (inactive) | > 100 µM (inactive) | > 100 µM (inactive) | – | – | – | – | –
C=C1[C@H](OCC(C)C)[C@@H](OC(=O)C(C)CC)[C@@H](O)C(C)(C)/C=C/[C@H](C)C(=O)[C@@]2(O)C[C@H](C)[C@H](O)[C@@H]2[C@H]1OC(=O)C(C)CC (some centres undefined) | 1.26 µM (inactive) | 1.66 µM (inactive) | 2.82 µM (inactive) | – | – | – | – | –
COc1ccc(-c2cc(-c3ccc(Nc4ccnc5cc(C(F)(F)F)ccc45)cc3)[nH]c(=O)c2C#N)cc1 | > 34.5 µM (inactive) | 10.1 µM (inactive) | > 100 µM (inactive) | – | – | – | – | –
CCN(CC)CC1CCCCN1CC(=O)N1c2ccccc2C(=O)Nc2cccnc21 (centres undefined) [OTENZEPAD] | 66.2 µM (inactive) | 93.1 µM (inactive) | 36.8 µM (inactive) | – | – | – | – | –
COC(=O)[C@H](Cc1c[nH]c2ccccc12)NC(=O)c1ccc(CNC(=O)/C(C)=C/c2ccccc2)cc1 | 19.8 µM (inactive) | – | 20.7 µM (inactive) | – | – | – | – | –
Nc1ccn(C2CCC(CO)O2)c(=S)n1 (centres undefined) | > 100 µM (inactive) | > 100 µM (inactive) | > 100 µM (inactive) | – | – | – | – | –
COc1cc(OC)c(C/C=C/c2ccccc2)cc1O | 18.1 µM (inactive) | 16.8 µM (inactive) | 17.1 µM (inactive) | – | – | – | – | –
COc1cccc2c3cccc(OC)c3c3[nH]cnc3c12 | 1.85 µM (inactive) | 0.394 µM (active) | 2.03 µM (inactive) | – | – | – | – | –
C[C@H]1C(=O)C2=C[C@H]1CCC(=O)[C@]1(C)CCCC(C)(C)[C@H]1C[C@H]2O | 31.6 µM (inactive) | 19 µM (inactive) | 33.3 µM (inactive) | – | – | – | – | –
O=C(Oc1ccc(OC(Oc2ccccc2)c2ccccc2)cc1)c1ccccc1 (centres undefined) | 14.4 µM (inactive) | > 31.6 µM (inactive) | 25.6 µM (inactive) | – | – | – | – | –
Nc1ncn2c(n1)nc1ccccc12 | > 100 µM (inactive) | > 100 µM (inactive) | > 100 µM (inactive) | – | – | – | – | –
CC[N+](CC)(CC)Cc1cn(S(=O)(=O)c2ccccc2)c2ccccc12 | – | – | – | – | > 100 µM (inactive) | > 100 µM (inactive) | > 100 µM (inactive) | –
COc1ccc(-n2nnc3c(C#N)c(C)c(-c4ccccc4)n3c2=O)cc1 | 0.413 µM (active) | 4.58 µM (inactive) | 1.82 µM (inactive) | – | – | – | – | –
COc1ccc(C(CC(C)=O)c2c(O)c3ccccc3oc2=O)cc1OC (centres undefined) | > 100 µM (inactive) | > 100 µM (inactive) | > 100 µM (inactive) | – | – | – | – | –

— ChEMBL document CHEMBL1201862, “PubChem BioAssay data set” (2004)
